Laboratory results from the supplement of paper PMC8960247.
Structures can show the parent of a compound that is named as a salt. ± gives the standard error.

Columns and labels:
621-103 (TSC2-rescued) = test: relative viability vs DMSO; higher = less cytotoxic; conditions: serum: 10% FBS, 72 h
621-102 (TSC2-deficient) = test: as above; conditions: serum: 10% FBS, 72 h
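Also: immortalized renal angiomyolipoma cells stably carrying empty vector or TSC2, dosed in 384-well plates in DMEM, viability normalized to vehicle-treated wells within each plate.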

SMILES	relative viability (621-103 (TSC2-rescued); 0.0001 µM)	relative viability (621-103 (TSC2-rescued); 0.001 µM)	relative viability (621-103 (TSC2-rescued); 0.01 µM)	relative viability (621-103 (TSC2-rescued); 0.1 µM)	relative viability (621-103 (TSC2-rescued); 1 µM)	relative viability (621-103 (TSC2-rescued); 10 µM)	relative viability (621-102 (TSC2-deficient); 0.0001 µM)	relative viability (621-102 (TSC2-deficient); 0.001 µM)	relative viability (621-102 (TSC2-deficient); 0.01 µM)	relative viability (621-102 (TSC2-deficient); 0.1 µM)	relative viability (621-102 (TSC2-deficient); 1 µM)	relative viability (621-102 (TSC2-deficient); 10 µM)
CC(C)c1cc(C(C)C)c(CC(=O)NS(=O)(=O)Oc2c(C(C)C)cccc2C(C)C)c(C(C)C)c1 [Avasimibe (CI-1011)]	108 ± 8.1%	99.44 ± 0.32%	105 ± 3.1%	101 ± 0.45%	97.89 ± 0.25%	97.8 ± 3.3%	106.2 ± 1%	97.5 ± 2.1%	95.2 ± 2.4%	99.6 ± 1.3%	104.3 ± 0.53%	106 ± 3.6%
CNC(=O)c1ccccc1Sc1ccc2c(/C=C/c3ccccn3)n[nH]c2c1 [Axitinib]	86.7 ± 7.2%	97.7 ± 3.4%	100 ± 0.42%	102 ± 1.1%	98.7 ± 1.9%	40.7 ± 1.5%	102 ± 3.9%	104 ± 1.7%	113 ± 0.88%	109 ± 3.8%	103.5 ± 0.7%	55 ± 0.8%
CN1CCCC(n2nc(Cc3ccc(Cl)cc3)c3ccccc3c2=O)CC1 (stereo not drawn) [Azelastine HCl (Astelin)]	101 ± 3.8%	92.3 ± 4.6%	98.15 ± 0.86%	100 ± 6.5%	102 ± 2.2%	68.28 ± 0.32%	111 ± 0.65%	114 ± 4.5%	103 ± 4.9%	109 ± 1.6%	106.8 ± 0.17%	90.43 ± 0.82%
CNC(=O)c1cc(Oc2ccc(NC(=O)Nc3ccc(Cl)c(C(F)(F)F)c3)c(F)c2)ccn1 [BAY 73-4506 (Regorafenib)]	98.01 ± 0.19%	99.11 ± 0.79%	99.9 ± 2.3%	102 ± 1.6%	100 ± 1.8%	63.55 ± 0.47%	109 ± 1.5%	93.9 ± 5.3%	99.5 ± 0.71%	98.4 ± 2.8%	102 ± 1.4%	88.2 ± 1.8%
CC[C@@H]1C(=O)N(C)c2cnc(Nc3ccc(C(=O)N[C@H]4CC[C@H](N5CCN(CC6CC6)CC5)CC4)cc3OC)nc2N1C(C)C [BI6727 (Volasertib)]	76.3 ± 0.95%	61.81 ± 0.53%	53.6 ± 0.88%	49 ± 2%	44.3 ± 1.4%	5.99 ± 0.27%	96.1 ± 4.3%	72.9 ± 4.5%	59.6 ± 3%	42.4 ± 0.63%	41.9 ± 0.7%	1.64 ± 0.065%
CC[C@@H]1C(=O)N(C)c2cnc(Nc3ccc(C(=O)NC4CCN(C)CC4)cc3OC)nc2N1C1CCCC1 [BI 2536]	98.6 ± 1.3%	66.74 ± 0.51%	53 ± 1.2%	43.5 ± 1.5%	50.6 ± 0.58%	13 ± 0.48%	98.2 ± 3.1%	80.3 ± 1.5%	47.9 ± 1.7%	44.6 ± 1.5%	51.66 ± 0.21%	29 ± 0.68%
COC(=O)c1ccc2c(C(=Nc3ccc(N(C)C(=O)CN4CCN(C)CC4)cc3)c3ccccc3)c(O)[nH]c2c1 [BIBF1120 (Vargatef)]	86 ± 5.4%	97.2 ± 3.1%	103.3 ± 0.75%	98.9 ± 3.9%	96.9 ± 2.5%	82 ± 2.1%	101 ± 2.6%	111 ± 5.3%	112 ± 1.5%	108 ± 3.1%	105 ± 1.7%	95.8 ± 1.2%
C/C(=C\C(=O)Nc1ccccc1C(=O)O)c1ccc2ccccc2c1 [BIBR1532]	110 ± 3.1%	98.3 ± 5%	104.2 ± 0.53%	103 ± 1.3%	99.8 ± 0.11%	96.4 ± 1.2%	93.51 ± 0.69%	98.3 ± 0.93%	112 ± 5.2%	105.7 ± 1%	95.36 ± 0.93%	87.4 ± 2.7%
Cn1c(CNc2ccc(C(=N)N)cc2)nc2cc(C(=O)N(CCC(=O)O)c3ccccn3)ccc21 [BIBR 953]	78 ± 9%	76.5 ± 10%	82.8 ± 11%	94.1 ± 7.3%	88.3 ± 6.7%	91.3 ± 4.6%	64.4 ± 4.5%	77.2 ± 5.6%	90.2 ± 2.2%	88.6 ± 4.5%	82.7 ± 9.1%	81 ± 4.6%
CCCCCCOC(=O)NC(=N)c1ccc(NCc2nc3cc(C(=O)N(CCC(=O)OCC)c4ccccn4)ccc3n2C)cc1 [BIBR-1048]	82.2 ± 13%	80.5 ± 6.2%	88.7 ± 4.1%	92.9 ± 8.5%	72.9 ± 5.4%	69.4 ± 1.5%	78.58 ± 0.35%	83.8 ± 4.3%	90.2 ± 3%	96.8 ± 4.4%	107 ± 6.2%	87.6 ± 3%
CN(C)C/C=C/C(=O)Nc1cc2c(Nc3ccc(F)c(Cl)c3)ncnc2cc1O[C@H]1CCOC1 [BIBW2992 )Tovok)]	98.7 ± 5.2%	106.2 ± 1%	103 ± 6%	100.3 ± 0.78%	78.3 ± 2.9%	7.915 ± 0.042%	115 ± 3%	108.3 ± 0.98%	110 ± 1.6%	108 ± 3.2%	91.85 ± 0.61%	13.8 ± 1.6%
COc1c(C)cnc(Cn2cnc3c(Cl)nc(N)nc32)c1C [BIIB021]	108.8 ± 0.79%	103 ± 1.5%	104.1 ± 0.83%	75 ± 2.9%	5.92 ± 0.87%	4.56 ± 0.052%	107 ± 1.3%	120 ± 2.2%	117 ± 4.1%	79 ± 2.7%	33.3 ± 1.2%	21.1 ± 0.83%
Cc1ccc(-n2nc(C(C)(C)C)cc2NC(=O)Nc2ccc(OCCN3CCOCC3)c3ccccc23)cc1 [BIRB 796]	98 ± 1.9%	98.8 ± 1.3%	97.2 ± 1%	98.7 ± 1.7%	94.18 ± 0.14%	95.5 ± 1.8%	104 ± 3.1%	107 ± 3.4%	98.8 ± 4.4%	103.8 ± 0.27%	103 ± 4.7%	104 ± 1.4%
Nc1cc(C(F)(F)F)c(-c2cc(N3CCOCC3)nc(N3CCOCC3)n2)cn1 [BKM120 (NVP-BKM120)]	102 ± 2.4%	112 ± 2.3%	109.19 ± 0.024%	104 ± 5%	58.5 ± 2.1%	21 ± 0.97%	97 ± 2%	102 ± 3.6%	95.9 ± 2.2%	92.9 ± 2.6%	71.9 ± 3.6%	20.01 ± 0.19%
